# Results reported in US12485124B2, “Methods for treating alzheimer disease and for reducing amyloid beta formation” (ARIBIO CO., LTD., priority 2019, dated 2025).
# Experiments:
# [1] = tested on: LC3B, p62, APP, Aβ1-42 in Retinoic Acid Differentiated SH-SY5Y Human Neuroblastoma Cell; assay: Western Blot of Autophagy Markers LC3B and p62; type: cell-based; conditions: 3-MA 5 mM together with the present invention; Aβ1-42 Oligomer 1 μM
# Procedure: To extract the proteins, the cells were treated with RIPA Lysis Buffer (Bio-Rad), homogenized, and centrifuged (14,000 rpm, 10 minutes, 4° C.) to obtain the supernatant. 5% Stacking Gel (DW, 30% Acrylamide: Bisacrylamide, 1M Tris pH 6.8, 10% SDS, TEMED, 10% Ammonium Persulfate) and 12% Separating Gel (DW, 30% Acrylamide: Bisacrylamide, 1.5M Tris pH 8.8, 10% SDS, TEMED, 10% Ammonium Persulfate) were used for SDS-PAGE. Supernatant obtained by centrifugation was mixed with 4× Lacmmli Buffer (Bio-Rad) in 3:1 ratio and boiled at 95° C. for 10 minutes to denature the proteins. The mixture was cooled in an ice bath for 10 minutes and span down. Protein Size Marker (Bio-Rad) and each sample were added to Stacking Gel Well prepared in Mini-Protein II Dual-Slab Apparatus (Bio-Rad) and electrophoresed at 150 volt till all are precipitated to the bottom. Polyvinylidene Difluoride (PVDF) Membrane was moistened with methanol to activate and washed with Transfer Buffer (190 mM Glycine, 50 mM Tris-Base, 0.05% SDS, 20% Methanol). Whatman 3M Paper moistened with Transfer Buffer was stacked in Mini Trans-Bolt Cell (Bio-Rad) and run electricity at 200 mA for 60 minutes to deposit the membrane. After the deposition, the membrane was blocked with 5% Skim milk solution (in TBS-T: 10 mM Tris-Base pH 8.0, 150 mM NaCl, 0.1% Tween-20) on a Platform Shaker for 60 minutes. The primary antibodies were diluted in 5% Skim Milk in an optimum concentration for each, put on platform shaker at 4° C. for 16 hours. […] Finally, Membrane was added to SuperSignal™ West Femto Maximum Sensitivity Substrate (Thermo Scientific™) and expressed the color properly before the membrane was scanned using image analysis system and the amount of protein was calculated using Image J Software (NIH, USA). […]
# BACE-1 and Cathepsin B = conditions: reported in J Gerontol a Biol Sci Med Sci 2015; J Urol. 2016; cited from earlier work
SMILES,APP formation and Aβ1-42 accumulation [1],Autophagic Flux (LC3B-II/I Ratio) [1],expression of p62 [1],BACE-1 and Cathepsin B expression (BACE-1 and Cathepsin B)
"Cn1cnc(N)c2ncnc1-2 [3-MA, 3-Methyladenine]",APP formation and Aβ1-42 accumulation increased,Autophagic Flux (LC3B-II/I Ratio) increased by the present invention was reduced,expression of p62 reduced by the present invention increased,–
CCCc1nn(C)c2c(=O)[nH]c(-c3cc(S(=O)(=O)N4CCN(C)CC4)ccc3OCC)nc12 [Sildenafil],–,–,–,suppressed BACE-1 and Cathepsin B expression
